Consider 18 compounds from patent publication US20250235456A1, “METHODS OF USE FOR AZA-QUINAZOLINE COMPOUNDS” (Iambic Therapeutics, Inc., priority 2024, published 2025).

Holding throughout (format): biochemical
The target of one experiment is CDK4/Cyclin D1 (Homo sapiens (Human), UniProt P11802). Nature of the experiment: CDK4/Cyclin D1 CHEF Assay. Particulars: AQT; read-out: CDK4/CyclinD1 AQT IC50. From the text: CDK4/Cyclin D1 CHEF Assay
The purpose of CDK4/Cyclin Dl assay is to evaluate the inhibition (% inhibition and IC50 values) of small molecule inhibitors by using a Chelation-Enhance Fluorescence (CHEF) assay. In a CHEF assay, phosphorylation of a peptide substrate results in proportional increase in fluorescence. CHEF kinase assay use peptide substrates containing a synthetic alpha-amino acid with a side chain bearing an 8-hydroxyquinoline derivative (sulfonamido-oxide, Sox). Upon phosphorylation of a nearby serine, threonine or tyrosine and in the presence of Mg(II), the spectral properties of the Sox residue are altered, emitting 485 nm wavelength light when excited with a 360 nm wavelength light source. CDK4/Cyclin D1 catalyzes the phosphoryl transfer to the SOX-labeled substrate peptide AQT0258 from Assayquant Technologies. […] The reaction was initiated with the addition of substrate solution, following a 30-minute pre-incubation of enzyme and inhibitor at 22° C. in the reaction mix. Reactions were allowed to proceed for 3 hrs at 22° C., followed by fluorescence read of the reaction. The IC50 determinations were made from a plot of the fractional velocity as a function of inhibitor concentration fit to the 4 parameters IC50 equation.

The next experiment has as its target CDK1/Cyclin B1 (Homo sapiens (Human), UniProt P06493). The experiment can be described thus: CDK1/Cyclin B1 ADP-Glo Kinase Assay. The method, then:
CDK1/Cyclin B1 ADP-Glo Kinase Assay
(§1) The purpose of CDK1/Cyclin Bi assay is to evaluate the inhibition (% inhibition and IC50 values) of small molecule inhibitors by using a Luminescent based ADP-Glo assay. CDK1/Cyclin B1 catalyzes the production of ADP from ATP. ADP-Glo assay monitors ADP producing biochemical reactions. ADP-Glo is performed in 2 steps upon completion of kinase reaction: a combined termination of kinase reaction and depletion of remaining ATP in the first step, and conversion of generated ADP to ATP and the newly produced ATP to light output using luciferase/luciferin reaction in the second step. The luminescent signal generated is proportional to the ADP concentration produced and is correlated with the kinase activity. CDK1/Cyclin B1 was purchased from Carna (Cat 04-102). […] The assay was initiated with the addition of ATP-containing substrate solution, following a 30-minute pre-incubation of enzyme and inhibitor at room temperature in the reaction mixture. The reaction was stopped after 90 minutes at room temperature by the addition of 10 μL of ADP-GLO Reagent. After a 90 minute incubation, 20 μL of Kinase Detection Reagent was added. Samples were incubated for 40 minutes, after which plate well luminescence was measured on a Envision microplate reader. The IC50 determinations were made from a plot of the fractional velocity as a function of inhibitor concentration fit to the 4 parameters IC50 equation.
A general note: In ADP-Glo the light output rises with the ADP produced.

Another experiment addresses CDK6/Cyclin D3 (Homo sapiens (Human), UniProt Q00534). Nature of the experiment: CDK6/Cyclin D3 ADP-Glo Kinase Assay. The settings on record: read-out: CDK6/CyclinD3 IC50. The protocol:
CDK6/Cyclin D3 ADP-Glo Kinase Assay
as §1, with “of the CDK6/Cyclin D3” for “of CDK1/Cyclin Bi”, “values) in the presence” for “values)”, “assay. CDK6/Cyclin D3” for “assay. CDK1/Cyclin B1”, “activity. CDK6/Cychin D3” for “activity. CDK1/Cyclin B1”, “from Carna.” for “from Carna (Cat 04-102).”, “a 90-minute” for “a 90 minute”

Chain of CDK6/Cyclin D3 (Q00534 whole entry): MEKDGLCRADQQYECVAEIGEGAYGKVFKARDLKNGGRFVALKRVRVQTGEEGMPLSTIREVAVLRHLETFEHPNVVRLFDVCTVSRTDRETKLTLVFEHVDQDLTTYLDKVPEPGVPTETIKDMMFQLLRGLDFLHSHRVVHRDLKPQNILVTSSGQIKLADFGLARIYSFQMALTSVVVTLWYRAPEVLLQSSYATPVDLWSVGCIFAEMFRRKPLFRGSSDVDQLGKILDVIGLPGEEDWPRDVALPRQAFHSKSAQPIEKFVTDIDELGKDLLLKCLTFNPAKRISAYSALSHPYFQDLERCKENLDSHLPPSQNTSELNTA
Chain of CDK6/Cyclin D3 (P30281 whole entry partner): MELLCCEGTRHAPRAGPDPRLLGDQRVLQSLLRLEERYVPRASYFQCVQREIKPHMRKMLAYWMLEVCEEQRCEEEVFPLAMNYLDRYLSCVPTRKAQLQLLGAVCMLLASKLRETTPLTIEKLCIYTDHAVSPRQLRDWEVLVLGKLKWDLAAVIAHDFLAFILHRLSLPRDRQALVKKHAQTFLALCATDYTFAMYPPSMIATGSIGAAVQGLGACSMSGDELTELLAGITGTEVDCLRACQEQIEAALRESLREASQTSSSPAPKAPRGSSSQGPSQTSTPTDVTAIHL
Chain of CDK4/Cyclin D1 (P11802 whole entry, species assumed): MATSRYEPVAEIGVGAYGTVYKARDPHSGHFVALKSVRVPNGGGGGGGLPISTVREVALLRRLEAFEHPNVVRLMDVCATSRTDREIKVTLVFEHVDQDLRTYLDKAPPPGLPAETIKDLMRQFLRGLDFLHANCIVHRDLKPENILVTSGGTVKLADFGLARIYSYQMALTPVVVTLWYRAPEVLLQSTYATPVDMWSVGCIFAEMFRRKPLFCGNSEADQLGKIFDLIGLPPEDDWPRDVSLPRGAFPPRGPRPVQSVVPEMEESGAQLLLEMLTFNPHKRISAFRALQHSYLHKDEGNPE
Chain of CDK4/Cyclin D1 (P24385 whole entry partner, species assumed): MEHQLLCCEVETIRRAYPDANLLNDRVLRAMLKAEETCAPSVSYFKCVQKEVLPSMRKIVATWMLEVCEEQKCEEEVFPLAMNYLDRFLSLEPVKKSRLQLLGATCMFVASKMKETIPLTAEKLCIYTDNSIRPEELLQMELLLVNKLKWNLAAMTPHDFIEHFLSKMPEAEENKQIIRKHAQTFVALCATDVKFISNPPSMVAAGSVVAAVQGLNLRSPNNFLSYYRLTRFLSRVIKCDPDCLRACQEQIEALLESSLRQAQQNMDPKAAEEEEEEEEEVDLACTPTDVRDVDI
Chain of CDK1/Cyclin B1 (P06493 whole entry): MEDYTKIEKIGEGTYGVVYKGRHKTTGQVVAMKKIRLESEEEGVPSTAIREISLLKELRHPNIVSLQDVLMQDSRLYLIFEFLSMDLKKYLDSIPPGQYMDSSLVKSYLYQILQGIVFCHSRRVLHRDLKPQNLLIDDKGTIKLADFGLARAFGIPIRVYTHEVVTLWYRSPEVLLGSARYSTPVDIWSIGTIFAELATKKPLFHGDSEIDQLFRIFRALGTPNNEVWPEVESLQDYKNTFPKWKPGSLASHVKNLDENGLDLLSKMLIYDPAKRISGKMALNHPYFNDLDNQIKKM
Chain of CDK1/Cyclin B1 (P14635 whole entry partner): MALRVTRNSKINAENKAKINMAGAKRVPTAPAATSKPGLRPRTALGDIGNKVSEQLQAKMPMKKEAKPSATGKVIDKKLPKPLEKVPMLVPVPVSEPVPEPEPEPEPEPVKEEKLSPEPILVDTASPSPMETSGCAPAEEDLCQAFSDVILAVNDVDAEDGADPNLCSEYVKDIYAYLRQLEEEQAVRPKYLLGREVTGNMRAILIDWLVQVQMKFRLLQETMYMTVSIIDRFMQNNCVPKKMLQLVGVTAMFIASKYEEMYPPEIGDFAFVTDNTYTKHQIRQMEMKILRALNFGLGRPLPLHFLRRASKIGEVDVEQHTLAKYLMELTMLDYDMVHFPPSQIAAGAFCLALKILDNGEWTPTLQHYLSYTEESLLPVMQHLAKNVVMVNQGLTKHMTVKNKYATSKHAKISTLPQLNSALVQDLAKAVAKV

Take `Cc1cc2cnc(NC3CCN(S(=O)(=O)C4CC4)CC3)nc2c(N2CC(F)(F)C3(CNC3)C2)n1` [Compound 62, N-(1-(cyclopropylsulfonyl)piperidin-4-yl)-8-(8,8-difluoro-2,6-diazaspiro[3.4]octan-6-yl)-6-methylpyrido[3,4-d]pyrimidin-2-amine]: the IC50 on CDK4/Cyclin D1, on CDK1/Cyclin B1 and at CDK6/Cyclin D3 was less than 200 nM in each case.
For the compound `CS(=O)(=O)N1CCC(Nc2ncc3cc(C(F)F)nc(N4CC5(CNCCC5(F)F)C4)c3n2)CC1` [Compound 65], the IC50 at CDK4/Cyclin D1, on CDK1/Cyclin B1 and at CDK6/Cyclin D3 was less than 200 nM each time.
With `COC1CC2(C1)CN(c1nc(C)cc3cnc(NC4CCN(S(=O)(=O)C5CC5)CC4)nc13)C2` [Compound 71, N-(1-(cyclopropylsulfonyl)piperidin-4-yl)-8-(6-methoxy-2-azaspiro[3.3]heptan-2-yl)-6-methylpyrido[3,4-d]pyrimidin-2-amine], the figures for the IC50 on CDK4/Cyclin D1, on CDK1/Cyclin B1 and on CDK6/Cyclin D3 were less than 200 nM, 200 to 500 nM and less than 200 nM, respectively.
On to `COC1CC2(C1)CN(c1nc(C3CC3)cc3cnc(NC4CCN(S(C)(=O)=O)CC4)nc13)C2` [Compound 75, 6-cyclopropyl-8-(6-methoxy-2-azaspiro[3.3]heptan-2-yl)-N-(1-(methylsulfonyl)piperidin-4-yl)pyrido[3,4-d]pyrimidin-2-amine], for which the figures for the IC50 at CDK4/Cyclin D1, against CDK1/Cyclin B1 and at CDK6/Cyclin D3 were less than 200 nM, more than 2000 nM and less than 200 nM, respectively.
For the compound `COC1CC2(C1)CN(c1nc(C)cc3cnc(NC4CCN(S(C)(=O)=O)CC4)nc13)C2` [Compound 76, 8-(6-methoxy-2-azaspiro[3.3]heptan-2-yl)-6-methyl-N-(1-(methylsulfonyl)piperidin-4-yl)pyrido[3,4-d]pyrimidin-2-amine], the IC50 on CDK4/Cyclin D1 was less than 200 nM; against CDK1/Cyclin B1, 200 to 500 nM; on CDK6/Cyclin D3, less than 200 nM.
Turning to `Cc1cc2cnc(NC3CCN(S(C)(=O)=O)CC3)nc2c(N2CC3(CCC(=O)N3)C2)n1` [Compound 77, 2-(6-methyl-2-((1-(methylsulfonyl)piperidin-4-yl)amino)pyrido[3,4-d]pyrimidin-8-yl)-2,5-diazaspiro[3.4] octan-6-one], the figures for the IC50 on CDK4/Cyclin D1, against CDK1/Cyclin B1 and at CDK6/Cyclin D3 were less than 200 nM, 200 to 500 nM and less than 200 nM, respectively.
Consider `Cc1cc2cnc(NC3CCN(S(=O)(=O)C4CC4)CC3)nc2c(N2CC3(C2)CC(C)(O)C3)n1` [Compound 78, 2-(2-((1-(cyclopropylsulfonyl)piperidin-4-yl)amino)-6-methylpyrido[3,4-d]pyrimidin-8-yl)-6-methyl-2-azaspiro[3.3]heptan-6-ol], for which the figures for the IC50 on CDK4/Cyclin D1, at CDK1/Cyclin B1 and at CDK6/Cyclin D3 were less than 200 nM, 200 to 500 nM and 200 to 500 nM, respectively.
In the case of `Cc1cc2cnc(NC3CCN(S(C)(=O)=O)CC3)nc2c(N2CC3(C2)CC(C)(O)C3)n1` [Compound 79, 6-methyl-2-(6-methyl-2-((1-(methylsulfonyl)piperidin-4-yl)amino)pyrido[3,4-d]pyrimidin-8-yl)-2-azaspiro[3.3]heptan-6-ol], the IC50 at CDK4/Cyclin D1 is less than 200 nM; at CDK1/Cyclin B1, 200 to 500 nM; at CDK6/Cyclin D3, 200 to 500 nM.
Turning to `Cc1cc2cnc(NC3CCN(S(C)(=O)=O)CC3)nc2c(N2CC3(CNC(=O)C3)C2)n1` [Compound 81, 2-(6-methyl-2-((1-(methylsulfonyl)piperidin-4-yl)amino)pyrido[3,4-d]pyrimidin-8-yl)-2,6-diazaspiro[3.4] octan-7-one], the IC50 at CDK4/Cyclin D1 was less than 200 nM; at CDK1/Cyclin B1, 200 to 500 nM; at CDK6/Cyclin D3, 200 to 500 nM.
With `Cc1cc2cnc(NC3CCN(S(C)(=O)=O)CC3)nc2c(N2CC3(CCC(=O)NC3)C2)n1` [Compound 82, 2-(6-methyl-2-((1-(methylsulfonyl)piperidin-4-yl)amino)pyrido[3,4-d]pyrimidin-8-yl)-2,6-diazaspiro[3.5] nonan-7-one], the IC50 on CDK4/Cyclin D1, at CDK1/Cyclin B1 and on CDK6/Cyclin D3 was 200 to 500 nM throughout.
Regarding `Cc1cc2cnc(Nc3ccc(CS(C)(=O)=O)cc3)nc2c(N2CC(O)(C3CC3)C2)n1` [Compound 83, 3-cyclopropyl-1-(6-methyl-2-((4-((methylsulfonyl)methyl)phenyl)amino)pyrido[3,4-d]pyrimidin-8-yl)azetidin-3-ol], the results for the IC50 at CDK4/Cyclin D1, on CDK1/Cyclin B1 and at CDK6/Cyclin D3 were less than 200 nM, 200 to 500 nM and less than 200 nM, respectively.
Regarding `Cc1cc2cnc(NC3CCN(S(=O)(=O)c4cnn(C)c4)CC3)nc2c(N2CC3(CCNCC3(F)F)C2)n1` [Compound 87, 8-(5,5-difluoro-2,7-diazaspiro[3.5]nonan-2-yl)-6-methyl-N-(1-((1-methyl-1H-pyrazol-4-yl)sulfonyl)piperidin-4-yl)pyrido[3,4-d]pyrimidin-2-amine], the IC50 on CDK4/Cyclin D1, against CDK1/Cyclin B1 and at CDK6/Cyclin D3 was less than 200 nM in each case.
Take `Cc1cc2cnc(NC3CCN(S(C)(=O)=O)CC3)nc2c(C2CC(O)(C3CC3)C2)n1` (stereo not drawn) [Compound 88, 1-cyclopropyl-3-(6-methyl-2-((1-(methylsulfonyl)piperidin-4-yl)amino)pyrido[3,4-d]pyrimidin-8-yl)cyclobutan-1-ol]: the IC50 at CDK4/Cyclin D1 was less than 200 nM; on CDK1/Cyclin B1, 200 to 500 nM; on CDK6/Cyclin D3, less than 200 nM.
On to `Cc1cc2cnc(NC3CCN(S(=O)(=O)c4cnn(C)c4)CC3)nc2c(N2CC(F)(F)C3(CNC3)C2)n1` [Compound 89, 8-(8,8-difluoro-2,6-diazaspiro[3.4]octan-6-yl)-6-methyl-N-(1-((1-methyl-1H-pyrazol-4-yl)sulfonyl)piperidin-4-yl)pyrido[3,4-d]pyrimidin-2-amine], for which the IC50 at CDK4/Cyclin D1, against CDK1/Cyclin B1 and at CDK6/Cyclin D3 was less than 200 nM each time.
For `Cc1cc2cnc(NC3CCN(S(C)(=O)=O)CC3)nc2c(N2CC(O)(C(F)F)C2)n1` [Compound 91, 3-(difluoromethyl)-1-(6-methyl-2-((1-(methylsulfonyl)piperidin-4-yl)amino)pyrido[3,4-d]pyrimidin-8-yl)azetidin-3-ol], the IC50 on CDK4/Cyclin D1, at CDK1/Cyclin B1 and on CDK6/Cyclin D3 was less than 200 nM each time.
Take `Cc1cc2cnc(NC3CCN(S(C)(=O)=O)CC3)nc2c(N2CC(F)(F)C3(CNC3)C2)n1` [Compound 92, 8-(8,8-difluoro-2,6-diazaspiro[3.4]octan-6-yl)-6-methyl-N-(1-(methylsulfonyl)piperidin-4-yl)pyrido[3,4-d]pyrimidin-2-amine]: the IC50 on CDK4/Cyclin D1, at CDK1/Cyclin B1 and on CDK6/Cyclin D3 was less than 200 nM in each case.
For the compound `CCS(=O)(=O)N1CCC(Nc2ncc3cc(C)nc(N4CC(F)(F)C5(CNC5)C4)c3n2)CC1` [Compound 95, 8-(8,8-difluoro-2,6-diazaspiro[3.4]octan-6-yl)-N-(1-(ethylsulfonyl)piperidin-4-yl)-6-methylpyrido[3,4-d]pyrimidin-2-amine], the IC50 at CDK4/Cyclin D1, on CDK1/Cyclin B1 and at CDK6/Cyclin D3 was less than 200 nM each time.
In the case of `Cc1cc2cnc(NC3CCN(S(C)(=O)=O)CC3)nc2c(N2CC3(CNCC3F)C2)n1` (stereo not drawn) [Compound 98, 8-(8-fluoro-2,6-diazaspiro[3.4]octan-2-yl)-6-methyl-N-(1-(methylsulfonyl)piperidin-4-yl)pyrido[3,4-d]pyrimidin-2-amine], the IC50 on CDK4/Cyclin D1 is less than 200 nM; on CDK1/Cyclin B1, 200 to 500 nM; at CDK6/Cyclin D3, 200 to 500 nM.
